# Reference: patent US4068074A, “Cephalosporin derivatives having at the 3-position of the cephem ring a heterocyclic thiomethyl group with a carboxy or sulfo group and at the 7-position of the cephem ring an α-heterocylic acylaminophenyl-acetamide group” (priority 1974, dated 1978)
# Read-outs that look alike come from different tables or passages of the source.
# What was measured:
# Format in all cases: cell-based
# Salmonella typhi H901 W = experiment: MIC against bacteria (Table I), strain (9); details: Salmonella enterica, TYPHI
# Text: (§1) Now, for illustrating the excellent pharmacological effects of the compounds of this invention, the values of MIC (γ/ml.) of the compounds against various bacteria are shown in Table 1, in which the compounds of this invention used are shown by example numbers.
# (9) Salmonella typhi H901 W
# [1] = test system: Shigella flexneri 2a 1675; experiment: MIC against bacteria (Table I), strain (11); details: 2A1675; (11) Shigella flexneri 2a 1675; read-out: MIC
# Text: as §1
# [2] = test system: Klebsiella pneumoniae ATCC 10031; experiment: MIC against bacteria (Table I), strain (8); details: ATCC10031
# Text: as §1
# (8) Klebsiella pneumoniae ATCC 10031
# Staphylococcus Onuma = experiment: MIC against bacteria (Table I), strain (18); details: (18) Staphylococcus Onuma; read-out: MIC
# Text: as §1
# (18) Staphylococcus Onuma
# [3] = test system: Pseudomonas aeruginosa 99 (Gentamycin resistant); experiment: MIC against bacteria (Table I), strain (5)
# Text: as §1
# (5) Pseudomonas aeruginosa 99 (Gentamycin resistant)
# [4] = test system: Bacillus subtilis ATCC 6633; experiment: MIC against bacteria (Table I), strain (14); details: ATCC6633
# Text: as §1
# (14) Bacillus subtilis ATCC 6633
# [5] = test system: Psuedomonas ovalis IMA 1002; experiment: MIC against bacteria (Table I), strain (6)
# Text: as §1
# (6) Psuedomonas ovalis IMA 1002
# Shigella sonnei II 37148 = experiment: MIC against bacteria (Table I), strain (12); details: II37148; (12) Shigella sonnei II 37148; read-out: MIC
# Text: as §1
# [6] = test system: Bacillus megatherium 10778; experiment: MIC against bacteria (Table I), strain (13)
# Text: as §1
# Proteus vulgaris 0X 19US = experiment: MIC against bacteria (Table I), strain (2); details: 0X19US
# Text: as §1
# (2) Proteus vulgaris 0X 19US
# [7] = test system: Micrococcus flavus ATCC 10240; experiment: MIC against bacteria (Table I), strain (15); details: ATCC10240; (15) Micrococcus flavus ATCC 10240; read-out: MIC
# Text: as §1
# (15) Micrococcus flavus ATCC 10240
# [8] = test system: Escherichia coli kauffmann 0-1; experiment: MIC against bacteria (Table I), strain (7)
# Text: as §1
# (7) Escherichia coli kauffmann 0-1
# [9] = test system: Staphylococcus Shimanishi; experiment: MIC against bacteria (Table I), strain (17); details: (17) Staphylococcus Shimanishi; read-out: MIC
# Text: as §1
# (17) Staphylococcus Shimanishi
# [10] = test system: Proteus mirabilis IXM OM-19; experiment: MIC against bacteria (Table I), strain (3); details: IXMOM19; (3) Proteus mirabilis IXM OM-19; read-out: MIC
# Text: as §1
# (3) Proteus mirabilis IXM OM-19
# Salmonella enteritidis = experiment: MIC against bacteria (Table I), strain (10); details: Salmonella enterica
# Text: as §1
# (10) Salmonella enteritidis
# [11] = test system: Staphylococcus aureus 209P; experiment: MIC against bacteria (Table I), strain (16)
# Text: as §1
# (16) Staphylococcus aureus 209P
# [12] = (8) Klebsiella pneumoniae ATCC 10031, read-out: MIC
# [13] = (14) Bacillus subtilis ATCC 6633, read-out: MIC
# [14] = (6) Psuedomonas ovalis IMA 1002, read-out: MIC
# [15] = (13) Bacillus megatherium 10778, read-out: MIC
# [16] = (2) Proteus vulgaris 0X 19US, read-out: MIC
# [17] = (10) Salmonella enteritidis, read-out: MIC
# [18] = (7) Escherichia coli kauffmann 0-1, read-out: MIC
# [19] = (5) Pseudomonas aeruginosa 99 (Gentamycin resistant), read-out: MIC
Compound,MIC (Salmonella typhi H901 W) [µg/mL],MIC [1] [µg/mL],"MIC [2, 12] [µg/mL]",MIC (Staphylococcus Onuma) [µg/mL],MIC ([3]; Pseudomonas aeruginosa) [µg/mL],"MIC [4, 13] [µg/mL]","MIC [5, 14] [µg/mL]",MIC (Shigella sonnei II 37148) [µg/mL],"MIC [6, 15] [µg/mL]",MIC (Proteus vulgaris 0X 19US; [16]) [µg/mL],MIC [7] [µg/mL],MIC ([8]; Escherichia coli) [µg/mL],MIC [9] [µg/mL],MIC [10] [µg/mL],MIC (Salmonella enteritidis; [17]) [µg/mL],MIC ([2]; Klebsiella pneumoniae) [µg/mL],"MIC [8, 18] [µg/mL]","MIC ([11]; Staphylococcus aureus, 209P) [µg/mL]","MIC [3, 19] [µg/mL]",MIC ([4]; Bacillus subtilis) [µg/mL],other results
"COc1cc(O)ncc1C(=O)N[C@@H](C(=O)N[C@@H]1C(=O)N2C(C(=O)O)=C(CSc3nnc(SCC(=O)O)s3)CS[C@H]12)c1ccccc1 [Example 28, 7-[D-α-(6-hydroxy-4-methoxynicotinoylamido)-α-phenylacetamido]-3-(5-carboxymethylthio-1,3,4-thiadiazol-2-yl)thiomethyl-Δ^3-cephem-4-carboxylic acid]",50,25,50,100,25,12.5,50,25,6.25,12.5,12.5,25,100,6.25,12.5,–,–,–,–,–,"MIC ([11]; (16) Staphylococcus aureus 209P, read-out: MIC): 12.5 µg/mL"
"O=C(O)CCCc1nnc(SCC2=C(C(=O)O)N3C(=O)[C@@H](NC(=O)[C@H](NC(=O)c4cnccc4O)c4ccccc4)[C@H]3SC2)s1 [Example 35, 7-[D-α-(4-hydroxynicotinoylamido)-α-phenylacetamido]-3-[5-(3-carboxypropyl)-1,3,4-thiadiazol-2yl]-thiomethyl-Δ^3 cephem-4-carboxylic acid]",1.56,1.56,–,12.5,6.25,0.78,–,6.25,0.78,50,3.13,–,–,0.78,0.78,6.25,3.13,1.56,–,–,MIC [5]: 6.25 µg/mL
"Cc1cc(O)c(C(=O)N[C@@H](C(=O)N[C@@H]2C(=O)N3C(C(=O)O)=C(CSc4nnc(CC(=O)O)s4)CS[C@H]23)c2ccccc2)cn1 [Example 38, 7-[D-α-(4-hydroxy-6-methylnicotinoylamido)-α-phenylacetamido]-3-(5-carboxymethyl-1,3,4-thiadiazol-2-yl)-thiomethyl-Δ^3-cephem-4-carboxylic acid]",1.56,1.56,12.5,12.5,–,–,50,3.13,–,–,12.5,3.13,–,0.78,–,–,–,3.13,12.5,1.56,"MIC ([6]; Bacillus, 10778): 1.56 µg/mL; MIC (Salmonella enteritidis; ENTERITIDIS): 1.56 µg/mL"
"Cc1cc(O)c(C(=O)N[C@@H](C(=O)N[C@@H]2C(=O)N3C(C(=O)O)=C(CSc4nnc(CCCC(=O)O)s4)CS[C@H]23)c2ccccc2)cn1 [Example 36, 7-[D-α-(4-hydroxy-6-methylnicotinoylamido)-α-phenylacetamido]-3-[5-(3-carboxypropyl)-1,3,4-thiadiazol-2-yl]thiomethyl-Δ^3-cephem-4-carboxylic acid]",1.56,0.78,6.25,12.5,–,–,25,3.13,–,100,6.25,1.56,–,0.39,–,–,–,1.56,6.25,1.56,"MIC ([6]; Bacillus, 10778): 0.78 µg/mL; MIC (Salmonella enteritidis; ENTERITIDIS): 1.56 µg/mL"
"Nc1nc(SCC(=O)O)cc(SCC2=C(C(=O)O)N3C(=O)[C@@H](NC(=O)[C@H](NC(=O)c4cnccc4O)c4ccccc4)[C@H]3SC2)n1 [Example 19, 7-[D-α-(4-hydroxynicotinoylamido)-α-phenylacetamido]-3-(2-amino-4-carboxymethylthiopyrimidin-6-yl)thiomethyl-Δ^3-cephem-4-carboxylic acid]",3.13,6.25,–,12.5,–,0.78,50,25,0.78,–,12.5,–,12.5,0.39,1.56,25,12.5,3.13,–,–,MIC (Proteus vulgaris 0X 19US; Proteus vulgaris): 6.25 µg/mL
